One assay has as its target T1, human NK3 receptor (Homo sapiens, UniProt P29371).
T1 construct: expressed in transfected cells; host or cells: HEK293 cells (transient expression), membrane preparation
T1 sequence (P29371 1-465): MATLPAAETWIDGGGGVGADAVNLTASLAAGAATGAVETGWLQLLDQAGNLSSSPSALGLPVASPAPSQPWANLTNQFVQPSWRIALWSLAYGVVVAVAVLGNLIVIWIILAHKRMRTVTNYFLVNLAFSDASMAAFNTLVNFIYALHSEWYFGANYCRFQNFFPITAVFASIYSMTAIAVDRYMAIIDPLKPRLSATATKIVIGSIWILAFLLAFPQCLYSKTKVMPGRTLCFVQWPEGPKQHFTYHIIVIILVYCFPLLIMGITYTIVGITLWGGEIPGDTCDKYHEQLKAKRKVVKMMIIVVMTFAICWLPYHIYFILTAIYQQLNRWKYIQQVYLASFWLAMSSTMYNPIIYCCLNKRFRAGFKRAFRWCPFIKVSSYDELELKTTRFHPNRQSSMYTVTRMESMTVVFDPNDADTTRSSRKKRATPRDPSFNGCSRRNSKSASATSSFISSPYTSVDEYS
Briefly: [3H]SR142801 competition binding assay (hNK3 receptor binding). Conditions: [3H]SR142801 radioligand; membranes from HEK293 cells transiently expressing recombinant human NK3 receptor; Ki by Cheng-Prussoff; read-out: KiNK3 h. In outline:
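Competition binding with [3H]SR142801 on membranes of HEK293 cells transiently expressing human NK3, 5 μg protein/well, in Tris-HCl/MnCl2/phosphoramidon/BSA buffer pH 7.4. Nonspecific binding defined with 10 μM SB222200; filtration then scintillation counting. IC50 from Hill fit was converted to Ki by Cheng-Prusoff; duplicate, mean ± SEM.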
In the case of `Cc1cc(C(=O)N2C[C@H]([C@H](C)Oc3ccc(Cl)cn3)[C@@H](c3ccc(F)cc3F)C2)cnn1` (racemic) [Example 117, [(3RS,4SR)-3-[(SR)-1-(5-Chloro-pyridin-2-yloxy)-ethyl]-4-(2,4-difluoro-phenyl)-pyrrolidin-1-yl]-(6-methyl-pyridazin-4-yl)-methanone], the Ki stood at 27 nM.
For the molecule `C[C@H](Oc1ccc(C#N)cn1)[C@H]1CN(C(=O)c2ccnnc2)C[C@@H]1c1ccc(Cl)c(Cl)c1` (racemic) [Example 77, 6-{(SR)-1-[(3RS,4SR)-4-(3,4-Dichloro-phenyl)-1-(pyridazine-4-carbonyl)-pyrrolidin-3-yl]-ethoxy}-nicotinonitrile], the Ki came to 32.8 nM.
On to `COc1ncc(C(=O)N2C[C@H]([C@H](C)Oc3ccc(C#N)cn3)[C@@H](c3ccc(Cl)c(Cl)c3)C2)cn1` (racemic) [Example 70, 6-{(SR)-1-[(3RS,4SR)-4-(3,4-Dichloro-phenyl)-1-(2-methoxy-pyrimidine-5-carbonyl)-pyrrolidin-3-yl]-ethoxy}-nicotinonitrile], for which the Ki stood at 34.9 nM.
Regarding `Cc1ncc(C(=O)N2C[C@H]([C@H](CO)Oc3ccc(Cl)cn3)[C@@H](c3ccc(Cl)c(Cl)c3)C2)cn1` (racemic) [Example 87, [(3RS,4SR)-3-[(RS)-1-(5-Chloro-pyridin-2-yloxy)-2-hydroxy-ethyl]-4-(3,4-dichloro-phenyl)-pyrrolidin-1-yl]-(2-methyl-pyrimidin-5-yl)-methanone], the Ki turned out to be 56.2 nM.
Still for that read-out and setting: under `Cc1cc(C(=O)N2C[C@H]([C@H](C)Oc3ccc(Cl)cn3)[C@@H](c3ccc(Cl)cc3)C2)cnn1` [Example 108, {(3S,4R)-3-(4-Chloro-phenyl)-4-[(S)-1-(5-chloro-pyridin-2-yloxy)-ethyl]-pyrrolidin-1-yl}-(6-methyl-pyridazin-4-yl)-methanone] stands 2.8 nM; under `Cc1nc(-c2ccc(C(=O)N3C[C@H]([C@H](C)Oc4ccc(C#N)cn4)[C@@H](c4ccc(Cl)c(Cl)c4)C3)cc2)no1` (racemic) [Example 61, 6-((SR)-1-{(3RS,4SR)-4-(3,4-Dichloro-phenyl)-1-[4-(5-methyl-[1,2,4]oxadiazol-3-yl)-benzoyl]-pyrrolidin-3-yl}-ethoxy)-nicotinonitrile], 1.4 nM; under `Cc1ncc(C(=O)N2C[C@H]([C@H](C)Oc3ccc(Cl)cn3)[C@@H](c3ccc(Cl)cc3)C2)cn1` [Example 109, {(3S,4R)-3-(4-Chloro-phenyl)-4-[(S)-1-(5-chloro-pyridin-2-yloxy)-ethyl]-pyrrolidin-1-yl}-(2-methyl-pyrimidin-5-yl)-methanone], 24.1 nM.
On the same count and under the same terms, under `CSc1ccc(C(=O)N2C[C@@H]([C@@H](C)Oc3ccc(Cl)cn3)[C@H](c3ccc(Cl)c(Cl)c3)C2)cn1` (racemic) [Example 45, [(3SR,4RS)-3-[(RS)-1-(5-Chloro-pyridin-2-yloxy)-ethyl]-4-(3,4-dichloro-phenyl)-pyrrolidin-1-yl]-(6-methylsulfanyl-pyridin-3-yl)-methanone] stands 7.3 nM.
On the same count and under the same terms, under `C[C@H](Oc1ccc(C#N)cn1)[C@H]1CN(C(=O)c2cncc(F)c2)C[C@@H]1c1ccc(Cl)c(Cl)c1` (racemic) [Example 74, 6-{(SR)-1-[(3RS,4SR)-4-(3,4-Dichloro-phenyl)-1-(5-fluoro-pyridine-3-carbonyl)-pyrrolidin-3-yl]-ethoxy}-nicotinonitrile] stands 18.6 nM.
Regarding `Cc1ncc(C(=O)N2C[C@@H]([C@@H](C)Oc3ccc(Cl)cn3)[C@H](c3ccc(Cl)c(Cl)c3)C2)cn1` (racemic) [Example 17, [(3SR,4RS)-3-[(RS)-1-(5-Chloro-pyridin-2-yloxy)-ethyl]-4-(3,4-dichloro-phenyl)-pyrrolidin-1-yl]-(2-methyl-pyrimidin-5-yl)-methanone], the Ki stood at 11.8 nM.
The same measure, in the same setting: under `Cc1ncc(C(=O)N2C[C@H]([C@H](C)Oc3ccc(Cl)cn3)[C@@H](c3ccc(F)c(Cl)c3)C2)cn1` [Example 101, {(3S,4R)-3-(3-Chloro-4-fluoro-phenyl)-4-[(S)-1-(5-chloro-pyridin-2-yloxy)-ethyl]-pyrrolidin-1-yl}-(2-methyl-pyrimidin-5-yl)-methanone] stands 46 nM.
As for `C[C@@H](Oc1ccc(Cl)cn1)[C@@H]1CN(C(=O)c2ccc(C#N)cc2)C[C@H]1c1ccc(Cl)c(Cl)c1` (racemic) [Example 10, 4-[(3SR,4RS)-3-[(RS)-1-(5-Chloro-pyridin-2-yloxy)-ethyl]-4-(3,4-dichloro-phenyl)-pyrrolidine-1-carbonyl]-benzonitrile], the Ki is 3.2 nM.
Same read-out and setting: under `C[C@@H](Oc1ccc(Cl)cn1)[C@@H]1CN(C(=O)c2ccc(CN(C)C)nc2)C[C@H]1c1ccc(Cl)c(Cl)c1` (racemic) [Example 39, [(3SR,4RS)-3-[(RS)-1-(5-Chloro-pyridin-2-yloxy)-ethyl]-4-(3,4-dichloro-phenyl)-pyrrolidin-1-yl]-(6-dimethylaminomethyl-pyridin-3-yl)-methanone] stands 9.3 nM; under `COc1ccc(C(=O)N2C[C@@H]([C@@H](C)Oc3ccc(C#N)cn3)[C@H](c3ccc(Cl)c(Cl)c3)C2)cn1` (racemic) [Example 34, 6-{(RS)-1-[(3SR,4RS)-4-(3,4-Dichloro-phenyl)-1-(6-methoxy-pyridine-3-carbonyl)-pyrrolidin-3-yl]-ethoxy}-nicotinonitrile], 47 nM; under `C[C@H](Oc1ccc(C#N)cn1)[C@H]1CN(C(=O)c2ccc3[nH]cnc3c2)C[C@@H]1c1ccc(Cl)c(Cl)c1` (racemic) [Example 69, 6-{(SR)-1-[(3RS,4SR)-1-(1H-Benzoimidazole-5-carbonyl)-4-(3,4-dichloro-phenyl)-pyrrolidin-3-yl]-ethoxy}-nicotinonitrile], 28.9 nM.
As for `C[C@H](Oc1ccc(C#N)cn1)[C@H]1CN(C(=O)c2ccc(S(=O)(=O)N(C)C)nc2)C[C@@H]1c1ccc(Cl)c(Cl)c1` (racemic) [Example 58, 5-[(3RS,4SR)-3-[(SR)-1-(5-Cyano-pyridin-2-yloxy)-ethyl]-4-(3,4-dichloro-phenyl)-pyrrolidine-1-carbonyl]-pyridine-2-sulfonic acid dimethylamide], the Ki came out at 0.5 nM.

Test system in a further assay: not given
Test: not given
The settings on record: phase II trial; negative symptoms (depression, anhedonia, social isolation, memory and attention deficits); cited from earlier work.
Regarding `CC(=O)N(C)C1(c2ccccc2)CCN(CCC[C@]2(c3ccc(Cl)c(Cl)c3)CCCN(C(=O)c3ccccc3)C2)CC1` [SR 142,801, Osanetant], the “activity in the treatment of negative symptoms of schizophrenia” value was “inactive”.

The same assay, now with this note: phase II trial; positive symptoms (altered behaviour, delusion, hallucinations, extreme emotions, excited motor activity, incoherent speech); cited from earlier work.
As to `CC(=O)N(C)C1(c2ccccc2)CCN(CCC[C@]2(c3ccc(Cl)c(Cl)c3)CCCN(C(=O)c3ccccc3)C2)CC1` [SR 142,801, Osanetant], the “activity on positive symptoms of schizophrenia” value is “active”.

The values above are taken from patent publication US8012998B2, “Pyrrolidine aryl-ether as NK-3 receptor antagonists” (Hoffmann—LA Roche Inc., priority 2007, dated 2011).
